6 compounds from patent publication US20170094972A1, “Compounds and Compositions Having Knock-Down Activity Against Insect Pests” (priority 2015, published 2017) can be followed below.

By mortality is commonly meant the percentage killed.

What all share (format): in vivo
Data set [1] deals with Anopheles stephensi. In words: 6 well plate test, knockdown after 1 hour and mortality after 24 and 48 hours. Also on record: KD: unit not given here. The conditions noted are these: for KD: after 1 hour. The method, then: The individual wells of six (6) well tissue culture plates were treated with […] of an ethanol solution containing a test compound at a defined concentration. Once the deposits were dry, ten non-blood fed adult female Anopheles stephensi (between two to five day old) were added to each well, and sustained with a 10% sucrose solution in a cotton wool plug. Assessment of the knockdown after 1 hour (Tables B1-B10), and mortality after 24 and 48 hours (Tables B1-B4) was carried out.
(§1) In case of multiple tests, the mean value is reported.

The next data set concerns female mosquitoes. As to the kind of experiment: Tunnel study based on WHOPES tunnel tests with Hemotek membrane feeding device. As for the experimental part:
Based on the “WHOPES tunnel tests” (described at http://apps.who.int/iris/bitstream/10665/80270/1/9789241505277_eng.pdf), except that live guniea pig baits were replaced with a Hemotek membrane feeding device, filled with blood and kept constant at 37° C. to mimic a human host. All tests were done under standardised laboratory controlled conditions (27° C.+2° C. under subdued light). The tunnel apparatus was a 60×30×30 cm glass case open at each end and the floor was lined with wet blue roll in order to maintain humidity. A 30×30×30 cm cage, covered in untreated netting, was placed at the release end. The test nets were cut to 25×25 cm squares and fitted into cardboard frames that allow a 20×20 cm area to be exposed. Nine holes, 1 cm in diameter, were made in the netting in the pattern specified in the WHOPES test. The frames were then fitted into the tunnel one third of the way down its length. A Hemotek device, filled with blood and kept constant at 37° C. to mimic a human host, was placed in the smaller area of the glass tunnel behind the test netting, and the end of the tunnel closed with a netting screen. A human sat at the Hemotek end of the tunnels for the duration of the test. At the start of the test (13.30-14.00), 100 female mosquitoes (non-blood fed, aged 5-8 days) were introduced into the cage. Mosquitoes are free to fly in the tunnel but have to make contact with the piece of netting and locate the holes in it before passing through to reach the bait. After 7 hours (20.30-21.00) the mosquitoes were counted in each section of the tunnel. The number of mosquitoes knocked down and blood fed were recorded. Blood-feeding inhibition was assessed by comparing the proportion of blood-fed females (alive or dead) in treated and control tests. Four tunnels were run simultaneously each day, with one control containing untreated netting included with all runs. Three replicates were carried out per treatment.
as §1

For another data set, the system named is adult female mosquitoes. As to the kind of experiment: Bottle assay based on CDC bottle assay. As for the experimental part:
Based on the “CDC bottle assay” (described at http://www.cdc.gov/malaria/resources/pdf/fsp/ir_manual/ir_cdc_bioassay_en.pdf) 1 ml of ethanol containing a test compound at a defined concentration was added to a 250 ml glass bottle and the bottles were placed on a rolling table to coat the inner surfaces as the solvent evaporated. Once dry, twenty five non-blood fed adult female mosquitoes of the appropriate species and strains (each three day old) were aspirated from the stock culture and gently blown into the exposure bottles. The lid of the bottle was replaced and the bottle placed upright out of direct sun light under standard culture conditions, nominally 28° C. and 60-80% relative humidity.
A stopwatch was started, and the assessment of the knock-down were made after 15 mins and 60 minutes. A mosquito was said to be knocked down if it was unable to stand, following the CDC definition. The bottles were replaced in an upright position when not being assessed.
After one hour the mosquitoes were carefully removed from the bottle with an aspirator and placed in a recovery cup. The mosquitoes were supplied with a 10% sucrose solution on a cotton wool bung, and stored under culture conditions. Assessments of the mortality were made after 24 hours and 48 hours (B15).
Each treatment was replicated a minimum of four times, with the mean knockdown or mortality recorded. In each study, a set of bottles was infested with a known insecticide susceptible strain of mosquitoes from the same genera as the resistant strains.

The subject of the next data set is Aedes aegypti. In words: 12 well plate knockdown test. The conditions noted are these: 1 h, read-out: Aedes aegypti 1 hour % KD; for pest or weed control at 0.2 ppm: Rate 0.2 PPM; for pest or weed control at 2 ppm: Rate 2 PPM; for pest or weed control at 20 ppm: Rate 20 PPM; for pest or weed control at 200 ppm: Rate 200 PPM. The method, then: (§2) The individual wells of a twelve (12) well tissue culture plates were treated with 100 μl of an ethanol solution containing a test compound at a defined concentration. Once the deposits were dry, five non-blood fed adult female Aedes aegypti or Anopheles stephensi (between two to five day old) were added to each well, and sustained with a 10% sucrose solution in a cotton wool plug. Assessment of the knockdown after 1 hour was carried out. Where multiple replicates of a treatment have been undertaken, the mean of those replicates is reported.

Data set [2] deals with Anopheles stephensi. As to the kind of experiment: 12 well plate knockdown test. As to conditions: 1 h, read-out: Anopheles stephensi 1 hour % KD; for pest or weed control at 0.2 ppm: Rate 0.2 PPM; for pest or weed control at 2 ppm: Rate 2 PPM; for pest or weed control at 20 ppm: Rate 20 PPM; for pest or weed control at 200 ppm: Rate 200 PPM. As for the experimental part: as §2

As to `CC1(C)C(C=C(Cl)Cl)C1C(=O)OCc1cccc(Oc2ccccc2)c1` (centres unmarked) [Permethrin], the 24 hr mort amounted to 0.0 with Anopheles stephensi [1] (Table B1, 0.0625 ppm alone); 3.3 with Anopheles stephensi [1] (Table B1, 0.125 ppm alone); 16.7 with Anopheles stephensi [1] (Table B1, 0.25 ppm alone); 23.3 in the data set on Anopheles stephensi [1] (Table B1, 0.5 ppm alone); 40.0 with Anopheles stephensi [1] (Table B1, 1 ppm alone); 66.7 in the data set on Anopheles stephensi [1] (Table B1, 2 ppm alone). In addition, the 24 hr mort in the data set on Anopheles stephensi [1] (Table B2, 0.0625 ppm alone) amounted to 0.0; in the data set on Anopheles stephensi [1] (Table B2, 0.125 ppm alone), 0.0; in the data set with Anopheles stephensi [1] (Table B2, 0.25 ppm alone), 10.0; in the data set on Anopheles stephensi [1] (Table B2, 0.5 ppm alone), 30.0; in the data set on Anopheles stephensi [1] (Table B2, 1 ppm alone), 40.0; in the data set with Anopheles stephensi [1] (Table B2, 2 ppm alone), 80.0. The 48 hr mort worked out at 0.0 in the data set on Anopheles stephensi [1] (Table B1, 0.0625 ppm alone); 0.0 with Anopheles stephensi [1] (Table B1, 0.125 ppm alone); 20.0 with Anopheles stephensi [1] (Table B1, 0.25 ppm alone); 30.0 in the data set on Anopheles stephensi [1] (Table B1, 0.5 ppm alone); 46.7 in the data set on Anopheles stephensi [1] (Table B1, 1 ppm alone); 80.0 with Anopheles stephensi [1] (Table B1, 2 ppm alone). In addition, the 48 hr mort in the data set on Anopheles stephensi [1] (Table B2, 0.0625 ppm alone) was 0.0; with Anopheles stephensi [1] (Table B2, 0.125 ppm alone), 0.0; with Anopheles stephensi [1] (Table B2, 0.25 ppm alone) it was 10.0; in the data set with Anopheles stephensi [1] (Table B2, 0.5 ppm alone) it was 50.0; with Anopheles stephensi [1] (Table B2, 1 ppm alone), 70.0; in the data set with Anopheles stephensi [1] (Table B2, 2 ppm alone) it was 80.0. Besides, the KD in the data set with Anopheles stephensi [1] (Table B1, 0.0625 ppm alone) was determined as 0.0; with Anopheles stephensi [1] (Table B1, 0.125 ppm alone), 0.0; in the data set with Anopheles stephensi [1] (Table B1, 0.25 ppm alone), 0.0; in the data set on Anopheles stephensi [1] (Table B1, 0.5 ppm alone) it was 0.0; with Anopheles stephensi [1] (Table B1, 1 ppm alone), 10.0; in the data set on Anopheles stephensi [1] (Table B1, 2 ppm alone) it was 13.3. Also, the KD in the data set with Anopheles stephensi [1] (Table B2, 0.0625 ppm alone) is on record as 0.0; in the data set on Anopheles stephensi [1] (Table B2, 0.125 ppm alone) it was 0.0; in the data set with Anopheles stephensi [1] (Table B2, 0.25 ppm alone), 0.0; with Anopheles stephensi [1] (Table B2, 0.5 ppm alone), 0.0; in the data set with Anopheles stephensi [1] (Table B2, 1 ppm alone) it was 0.0; in the data set on Anopheles stephensi [1] (Table B2, 2 ppm alone), 0.0. Further, the mortality at 10 mg/m2 in the data set with female mosquitoes (24 h, Table B11, Rate 10 mg/m2, 24 hours, read-out: % Mortality) came to 24%. For the same compound, the “% Blood fed” value with female mosquitoes (Table B11, Rate 10 mg/m2) came out at 31%. Besides, in the data set with adult female mosquitoes (Table B15, rates not given), the “24 hour % mort” value came to 0%. The “48 hour % mort” value in the data set with adult female mosquitoes (Table B15, rates not given) is listed as 0%. Also, the “% 1 hour KD” value is reported as 100% in the data set on adult female mosquitoes (Table B15, rates not given) and 100% in the data set on adult female mosquitoes (Table B16, 1ug/bottle). Further, the “% 24 hour mortality” value in the data set on adult female mosquitoes (Table B16, 1ug/bottle) is given as 0%.
On to `CC1(C)[C@H](C(=O)O[C@H](C#N)c2cccc(Oc3ccccc3)c2)[C@@H]1C=C(Br)Br` [Deltamethrin, reference compound], for which the “knockdown after 1 hour, Alone” value is reported as 20 with Anopheles stephensi [1] (Table B6, 0.03125 ppm); 40 in the data set on Anopheles stephensi [1] (Table B6, 0.0625 ppm); 40 with Anopheles stephensi [1] (Table B6, 0.125 ppm); 100 in the data set with Anopheles stephensi [1] (Table B6, 0.25 ppm); 100 in the data set with Anopheles stephensi [1] (Table B6, 0.5 ppm); 100 with Anopheles stephensi [1] (Table B6, 1 ppm). Besides, the mortality at 5 mg/m2 in the data set on female mosquitoes (24 h, Table B13, 5 mg/m2) came out at 13%. Moreover, in the data set on female mosquitoes (Table B12, 5 mg/m2), the “% 1 hour KD” value was 0%. Also, the “% Blood fed” value came out at 0% in the data set on female mosquitoes (Table B12, 5 mg/m2) and 52.77% in the data set on female mosquitoes (Table B13, 5 mg/m2). Also, the “% Through net” value with female mosquitoes (Table B12, 5 mg/m2) is listed as 0.93%; with female mosquitoes (Table B13, 5 mg/m2), 67.6%.
Turning to `COC(=O)N(C(=O)N1CO[C@@]2(C(=O)OC)Cc3cc(Cl)ccc3C2=N1)c1ccc(OC(F)(F)F)cc1` [Indoxacarb], the 24 hr mort in the data set with Anopheles stephensi [1] (Table B4, 12.5 ppm alone) is recorded as 0.0; in the data set with Anopheles stephensi [1] (Table B4, 25 ppm alone), 0.0; in the data set on Anopheles stephensi [1] (Table B4, 50 ppm alone) it was 0.0; with Anopheles stephensi [1] (Table B4, 100 ppm alone), 0.0. For the same compound, the 48 hr mort with Anopheles stephensi [1] (Table B4, 12.5 ppm alone) is on record as 0.0; in the data set on Anopheles stephensi [1] (Table B4, 25 ppm alone), 0.0; in the data set on Anopheles stephensi [1] (Table B4, 50 ppm alone), 0.0; in the data set on Anopheles stephensi [1] (Table B4, 100 ppm alone) it was 0.0. Further, the KD on Anopheles stephensi [1] (Table B4, 12.5 ppm alone) stood at 0.0; on Anopheles stephensi [1] (Table B4, 25 ppm alone) it was 0.0; on Anopheles stephensi [1] (Table B4, 50 ppm alone) it was 0.0; at Anopheles stephensi [1] (Table B4, 100 ppm alone), 0.0. The “knockdown after 1 hour, Alone” value in the data set with Anopheles stephensi [1] (Table B7, 25 ppm) is given as 0; in the data set on Anopheles stephensi [1] (Table B7, 50 ppm), 0; with Anopheles stephensi [1] (Table B7, 100 ppm), 0; with Anopheles stephensi [1] (Table B7, 200 ppm) it was 0. The “% 24 hour mortality” value in the data set with female mosquitoes (Table B14, 20 mg/m2) was 7.6%. Moreover, the “% Blood fed” value with female mosquitoes (Table B14, 20 mg/m2) is 31.4%.
For the compound `N#CCNC(=O)c1cnccc1C(F)(F)F` [Flonicamid], in the data set with adult female mosquitoes (Table B15, rates not given), the “24 hour % mort” value came out at 0%, the “48 hour % mort” value is 0% and the “% 1 hour KD” value is 0%.
As for `CSCC/C(N)=N\C(=O)c1cnccc1C(F)(F)F` [I.21], in the data set on Aedes aegypti, the pest or weed control at 0.2 ppm is 0%, the pest or weed control at 2 ppm turned out to be 0%, the pest or weed control at 20 ppm was found to be 0% and the pest or weed control at 200 ppm is 100%. In addition, in the data set with Anopheles stephensi [2], the pest or weed control at 0.2 ppm worked out at 20%, the pest or weed control at 2 ppm was 60%, the pest or weed control at 20 ppm was 100% and the pest or weed control at 200 ppm was 100%.
For the compound `CS(=O)(=O)NC(=O)c1cnccc1C(F)(F)F` [I.24], in the data set with Aedes aegypti, the pest or weed control at 0.2 ppm came out at 100%, the pest or weed control at 2 ppm is 100%, the pest or weed control at 20 ppm was determined as 100% and the pest or weed control at 200 ppm was 100%. Further, in the data set with Anopheles stephensi [2], the pest or weed control at 0.2 ppm was found to be 40%, the pest or weed control at 2 ppm is 60%, the pest or weed control at 20 ppm came out at 100% and the pest or weed control at 200 ppm was found to be 100%.
